Reference: patent US8552183B2, “Process for the covalent coupling of two molecules by means of a diels-alder reaction with inverse electron requirement” (Deutsches Krebsforschungszentrum Stiftung des Offentlichen …, priority 2006, dated 2013)

Tests used:
Type in all cases: physicochemical
[1] = DARinv kinetic measurement, tetrazines with dienophile 17; conditions: second order
Experimental: (§1) Exploratory kinetic DARinv measurements for the produced dienes and dienophiles show the expected broad reaction behavior.
(§2) Legend: rate constants for the reaction for the reaction DARinv of dienes with dienophiles in liter mol^−1s^−1; n.d. means not yet measured. n.d(+) means: reaction is carried out, however, is too slow for the measurements, DAR adduct is characterized.
(§3) The conduction is very simple since the tetrazines have an absorption maximum of sufficient intensity at 520 nm whose reduction can be very well traced by means of photometry. The kinetic analysis supplies a rate law of second order.

[2] = DARinv kinetic measurement, tetrazines with dienophile 28 (photometry at 520 nm); conditions: second order
Experimental: as §1, §2, §3

[3] = DARinv kinetic measurement, tetrazines with dienophile 26; conditions: second order
Experimental: as §1, §2, §3

[4] = DARinv kinetic measurement, tetrazines with dienophile 16; conditions: second order
Experimental: as §1, §2, §3

[5] = DARinv kinetic measurement, tetrazines with dienophile 27
Experimental: as §1, §2, §3

[6] = DARinv kinetic measurement, tetrazines with dienophile 14; conditions: second order
Experimental: as §1, §2, §3

[7] = DARinv kinetic measurement, tetrazines with dienophile 13 (Reppe-ester); conditions: second order
Experimental: as §1, §2, §3

[8] = DARinv of a methylene-group dienophile, reaction time; conditions: room temperature; reacts very slowly
Experimental: A twofold substituted double bond as occurring in fatty acids or lipids, only reacts very slowly under normal conditions in the sense of DARinv. A methylene group, such as in the perilla alcohol, also reacts very slowly at room temperature (60 hours) in the sense of the DARinv thereby forming the expected adduct. However, as soon as a double bond is integrated within a carbocyclic ring system, it reacts much more rapidly than dienophile, the reactivity decreasing with increasing ring size, starting with the cyclopropene, and passing through a minimum with cyclohexene. In ring systems greater than seven rings, triple bonds can also react as inverse dienophiles.

[9] = with dienophile 27, lower part of Table 2 (drawing 12)
[10] = with dienophile 27, upper part of Table 2 (drawing 3)

Row | SMILES | rate constant k of DARinv [1] [M⁻¹ s⁻¹] | rate constant k of DARinv [2] | rate constant k of DARinv [3] | rate constant k of DARinv [4] [M⁻¹ s⁻¹] | rate constant k of DARinv [5, 9] [M⁻¹ s⁻¹] | rate constant k of DARinv [5, 10] [M⁻¹ s⁻¹] | rate constant k of DARinv [6] [M⁻¹ s⁻¹] | rate constant k of DARinv [7] [M⁻¹ s⁻¹] | reaction time of DARinv forming the expected adduct [8] [h]
1 | COC(=O)c1nnc(C(=O)OC)nn1 | 0.13 | 0.022 L/mol/s | 0.0028 L/mol/s | 0.44 | 0.0048 | 0.0036 | 1.63 | 3.4 | 
2 | COC(=O)CNC(=O)c1nnc(C(=O)NCC(=O)OC)nn1 | 0.18 | 0.028 L/mol/s | 0.0056 L/mol/s | 0.44 | 0.0073 | 0.0069 | 0.048 | 0.028 | 
3 | O=C(NCCO)c1nnc(C(=O)NCCO)nn1 | 0.06 | 0.023 L/mol/s | 0.0053 L/mol/s | 0.11 | 0.008 | 0.0067 | 0.69 | 0.2 | 
4 | COC(=O)CNC(=O)c1nnc(C(=O)N(C)C)nn1 |  | <10^−4 liter mol^−1s^−1 | <10^−4 liter mol^−1s^−1 |  |  |  |  | 0.014 | 
5 | C=C(C)[C@@H]1CC=C(CO)CC1 [perilla alcohol] |  |  |  |  |  |  |  |  | 60
